Values quoted from earlier work as cited in patent US20050118235A1, “Dietary non-essential amino acid tyrosine regulates the body weight of animals through regulating the animal appetite or food intake” (priority 2003, published 2005).

Test system: activity anorexia in mice
Conditions: tyrosine injection, activity anorexia in mice (Avraham et al. 2001)

N[C@@H](Cc1ccc(O)cc1)C(=O)O [Tyrosine]
effect on appetite, cognition and exercise tolerance: improves appetite, cognition, and exercise tolerance
